Patent US20040037806A1, “Aldosterone blocker therapy to prevent or treat inflammation-related disorders” (Pharmacia Corporation, priority 2002, published 2004)
Entries after “also recorded” stand apart in the source; their conditions may differ.

Legend:
Assay type in all cases: in vivo, rat
[1] = system: Osteopontin, ED-1, CD-3, ICAM-1, VCAM-1; test: Assay C: immunohistochemistry of myocardial tissue; conditions: aldosterone+salt alone or with eplerenone 100 mg/kg/day
Protocol: (§1) The procedure of Assay B was expanded upon in a further study. […] Myocardial tissue from animals in each treatment group was examined after 7, 14, or 30 days of treatment. […] Lesions were preceded by the expression and progressive upregulation of proinflammatory molecules.
(§2) Potassium chloride supplementation was added to the saline solution in order to prevent the potential hypokalemia associated with aldosterone excess.
Treatment At the time of the surgery, an Alzet 2002 osmotic minipump (Alza Corp., Palo Alto, Calif.) containing either vehicle (9% ethanol/87% propylene glycol/4% dH2O) or 1.0 mg/mL d-aldosterone (Sigma Chemical, St. Louis, Mo.) was inserted subcutaneously at the nape of the neck. Aldosterone was administered at a dose of 0.75 µg/hour. […] Animals were sacrificed from each group (n=8-13) after 7, 14, or 30 days of treatment.
Five μm sections were deparaffinized in xylene (two, 5-10 min incubations) and rehydrated by 3 min incubations in ethanol as follows: two incubations in 100% ethanol followed by two incubations in 95% alcohol and one incubation in 70% alcohol. Once hydrated, sections were rinsed in tap water for 1 min and distilled water for 1 min. Endogenous peroxide activity was blocked by placing slides in 3.0% H2O2 for 15 min followed by a 5 min rinse in distilled water. Slides were processed for antigen retrieval using citric acid, pH6.0. […]

osteopontin [2] = test: Assay B: osteopontin immunohistochemistry in the heart; conditions: aldosterone-infused, saline-drinking, uninephrectomized rats, eplerenone 100 mpk p.o, increased dietary potassium
Protocol: Assay B: In Vivo Aldosterone Infusion Model
Determination of osteopontin and COX-2 was performed by quantitative RT-PCR (Taqman). Osteopontin was also identified in the heart by immunohistochemistry.

osteopontin [3] = test: Assay A: osteopontin immunostaining of hearts; conditions: angiotensin II-infused, saline-drinking Wistar rats; eplerenone 100 mpk; aldosterone replacement in adrenalectomized rats
[4] = Assay C: aldosterone infusion study, radiotelemetrized arterial blood pressure; conditions: 30-day protocol; uninephrectomized Sprague-Dawley rats, aldosterone + salt alone or with eplerenone 100 mg/kg/day
Protocol: as §1
Male Sprague-Dawley rats, weighing 230 to 250 g, (Harlan Sprague-Dawley Industries, Indianapolis, Ind.) were housed in a room 12-hours light/12-hours dark daily cycle at an ambient temperature of 22±1° C. (n=96). Animals were allowed one week to adjust after arrival and had free access to TEKLAD 22/5 rodent diet (Harlan TEKLAD, Madison, Wis.) and tap water until the initiation of the experiment.
as §2
Treatment At the time of the surgery, an Alzet 2002 osmotic minipump (Alza Corp., Palo Alto, Calif.) containing either vehicle (9% ethanol/87% propylene glycol/4% dH2O) or 1.0 mg/mL d-aldosterone (Sigma Chemical, St. Louis, Mo.) was inserted subcutaneously at the nape of the neck. […]
Animals to be sacrificed after 7 or 14 days of treatment were uninephrectomized and implanted with an Alzet minipump. […] Animals were monitored daily for signs of distress and infection at the surgical site. […]
Radiotelemetrized arterial blood pressure was calculated with the […]

Row | Structure (SMILES) | Immunohistochemical staining of marker proteins in myocardial tissue [1] | Osteopontin expression in the heart (immunostaining) (osteopontin [2]) | Osteopontin expression in the heart (immunostaining) (osteopontin [3]) | Systolic blood pressure (radiotelemetry) [4] | Osteopontin expression in the heart (immunostaining) (osteopontin [2]; listed as Eplerenone)
1 | C[C@]12CCC(=O)C=C1CC[C@@H]1[C@@H]2[C@@H](O)C[C@]2(C=O)[C@@H](C(=O)CO)CC[C@@H]12 [aldosterone] | Significant expression of osteopontin | clearly identified in the media of coronary arteries | restored osteopontin expression | induced severe hypertension; also recorded: induced a progressive increase in blood pressure with time | 
2 | COC(=O)[C@@H]1CC2=CC(=O)CC[C@]2(C)[C@@]23O[C@@H]2C[C@@]2(C)[C@@H](CC[C@@]24CCC(=O)O4)[C@H]13 [eplerenone] | markedly blunted | prevention by eplerenone of induction of osteopontin expression; also recorded: prevention by eplerenone of osteopontin upregulation | prevented osteopontin expression | significantly reduced at days 8-30; also recorded: remained elevated compared to vehicle+salt controls | prevented the expression of osteopontin
